Assay results as given in patent US11597704B2, “2,4-diaminoquinazoline derivatives and medical uses thereof” (Janssen Sciences Ireland Unlimited Company, priority 2018, dated 2023).

What was measured:
human TLR7 = biological target: T1, human TLR7 (Homo sapiens, UniProt Q9NYK1); experiment: TLR7 NFκB-luc cellular reporter assay in transiently transfected HEK293 cells; format: cell-based; settings: lowest effective concentration; HEK293 cells transfected with wild type TLR7 and NFκB-luc reporter, 6 h incubation
T1 construct: expressed in transfected cells; host or cells: HEK293
T1 sequence (Q9NYK1 27-1049): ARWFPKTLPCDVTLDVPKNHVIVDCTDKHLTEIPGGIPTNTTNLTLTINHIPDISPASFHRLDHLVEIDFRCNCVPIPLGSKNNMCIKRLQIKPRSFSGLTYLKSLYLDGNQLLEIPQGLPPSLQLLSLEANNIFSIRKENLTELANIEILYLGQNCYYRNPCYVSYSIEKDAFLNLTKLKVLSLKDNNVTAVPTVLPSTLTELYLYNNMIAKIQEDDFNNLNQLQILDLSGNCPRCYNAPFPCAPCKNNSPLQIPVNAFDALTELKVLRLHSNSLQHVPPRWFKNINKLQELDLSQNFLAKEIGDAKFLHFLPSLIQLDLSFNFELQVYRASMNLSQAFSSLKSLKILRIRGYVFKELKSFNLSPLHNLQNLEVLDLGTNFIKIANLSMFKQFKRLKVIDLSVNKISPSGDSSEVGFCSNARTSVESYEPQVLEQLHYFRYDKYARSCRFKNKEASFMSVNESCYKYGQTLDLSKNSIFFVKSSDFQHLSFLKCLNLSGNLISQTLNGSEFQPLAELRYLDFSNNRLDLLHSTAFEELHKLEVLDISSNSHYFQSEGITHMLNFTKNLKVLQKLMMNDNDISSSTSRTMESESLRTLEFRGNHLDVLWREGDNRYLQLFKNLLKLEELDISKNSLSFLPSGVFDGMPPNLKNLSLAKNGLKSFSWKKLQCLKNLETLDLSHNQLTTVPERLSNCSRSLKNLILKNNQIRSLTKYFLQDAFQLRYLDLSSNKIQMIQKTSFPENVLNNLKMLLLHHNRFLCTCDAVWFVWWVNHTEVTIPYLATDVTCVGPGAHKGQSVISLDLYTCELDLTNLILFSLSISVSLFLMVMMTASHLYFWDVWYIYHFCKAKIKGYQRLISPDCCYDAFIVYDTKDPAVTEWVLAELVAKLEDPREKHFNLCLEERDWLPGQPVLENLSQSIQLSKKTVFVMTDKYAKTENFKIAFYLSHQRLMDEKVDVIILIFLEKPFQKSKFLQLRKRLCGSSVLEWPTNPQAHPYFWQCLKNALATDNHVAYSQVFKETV
Method: (§1) The ability of compounds to activate human TLR7 and/or TLR8 was assessed in a cellular reporter assay using HEK293 cells transiently transfected with a TLR7 or TLR8 expression vector and NFκB-luc reporter construct. In one instance, the TLR expression construct expresses the respective wild type sequence or a mutant sequence comprising a deletion in the second leucine-rich repeat of the TLR.
(§2) HEK293 cells were grown in culture medium (DMEM supplemented with 10% FCS and 2 mM Glutamine). For transfection of cells in 10 cm dishes, cells were detached with Trypsin-EDTA, transfected with a mix of CMV-TLR7 or TLR8 plasmid (750 ng), NFκB-luc plasmid (375 ng) and a transfection reagent and incubated 24 h at 37° C. in a humidified 5% C02 atmosphere. Transfected cells were then detached with Trypsin-EDTA, washed in PBS and re-suspended in medium to a density of 1.67×10^5 cells/mL. Thirty microliters of cells were then dispensed into each well in 384-well plates, where 10 μL of compound in 4% DMSO was already present. Following 6 h incubation at 37° C., 5% CO2, the luciferase activity was determined by adding 15 μl of STEADY LITE PLUS substrate (PERKIN ELMER) to each well and readout performed on a VIEWLUX ULTRAHTS microplate imager (PERKIN ELMER). Dose response curves were generated from measurements performed in quadruplicates. Lowest effective concentrations (LEC) values, defined as the concentration that induces an effect which is at least two-fold above the standard deviation of the assay, were determined for each compound.

human TLR8 = biological target: T2, human TLR8 (Homo sapiens, UniProt Q9NR97); experiment: TLR8 NFκB-luc cellular reporter assay in transiently transfected HEK293 cells; format: cell-based; settings: lowest effective concentration; HEK293 cells transfected with wild type TLR8 and NFκB-luc reporter, 6 h incubation
T2 construct: expressed in transfected cells; host or cells: HEK293
T2 sequence (Q9NR97 27-1041): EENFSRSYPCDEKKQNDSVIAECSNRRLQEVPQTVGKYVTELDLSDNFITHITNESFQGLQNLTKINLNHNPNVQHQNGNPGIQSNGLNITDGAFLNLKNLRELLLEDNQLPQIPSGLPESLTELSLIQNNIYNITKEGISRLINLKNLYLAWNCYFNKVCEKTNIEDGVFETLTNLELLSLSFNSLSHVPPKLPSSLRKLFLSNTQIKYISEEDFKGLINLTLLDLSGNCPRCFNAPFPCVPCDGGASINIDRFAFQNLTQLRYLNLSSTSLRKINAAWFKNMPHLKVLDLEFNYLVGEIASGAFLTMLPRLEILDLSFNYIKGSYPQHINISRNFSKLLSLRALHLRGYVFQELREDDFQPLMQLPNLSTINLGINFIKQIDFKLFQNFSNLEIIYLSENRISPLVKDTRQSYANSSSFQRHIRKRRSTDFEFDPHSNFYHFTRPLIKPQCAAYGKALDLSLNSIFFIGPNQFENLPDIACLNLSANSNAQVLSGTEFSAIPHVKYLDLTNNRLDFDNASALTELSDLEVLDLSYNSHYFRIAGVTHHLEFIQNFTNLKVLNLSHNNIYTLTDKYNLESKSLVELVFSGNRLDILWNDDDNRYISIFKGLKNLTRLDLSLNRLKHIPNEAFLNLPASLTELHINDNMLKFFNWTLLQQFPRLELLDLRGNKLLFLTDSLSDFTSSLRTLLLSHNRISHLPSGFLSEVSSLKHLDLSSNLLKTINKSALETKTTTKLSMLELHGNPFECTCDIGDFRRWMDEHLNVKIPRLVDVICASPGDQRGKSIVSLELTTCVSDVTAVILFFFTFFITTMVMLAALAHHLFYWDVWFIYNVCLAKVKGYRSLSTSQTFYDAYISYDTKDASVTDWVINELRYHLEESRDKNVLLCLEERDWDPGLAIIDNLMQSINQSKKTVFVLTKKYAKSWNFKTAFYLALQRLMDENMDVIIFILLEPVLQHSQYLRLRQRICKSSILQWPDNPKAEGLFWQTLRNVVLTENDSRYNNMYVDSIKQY
Method: as §1, §2

Row | Compound | hTLR7-wt (LEC) (human TLR7) [µM] | hTLR8-wt (LEC) (human TLR8) [µM]
1 | CCC[C@H](CO)Nc1nc(N)nc2c(F)cccc12 [Compound 10, (R)-2-((2-amino-8-fluoroquinazolin-4-yl)amino)pentan-1-ol] | > 25 | 3.27
2 | CCCC[C@H](CO)Nc1nc(N)nc2cc(C(=O)N(C)C)ccc12 [Compound 25, (R)-2-amino-4-((1-hydroxyhexan-2-yl)amino)-N,N-dimethylquinazoline-7-carboxamide] | > 100 | 3.89
3 | CCCC[C@H](COC(=O)C(C)C)Nc1nc(N)nc2c(C)cccc12 [Compound 11, (R)-2-((2-amino-8-methylquinazolin-4-yl)amino)hexyl isobutyrate] | > 25 | 0.64
4 | CCCC[C@H](CO)Nc1nc(N)nc2cccc(C(F)(F)F)c12 [Compound 3, (R)-2-((2-amino-5-(trifluoromethyl)quinazolin-4-yl)amino)hexan-1-ol] | > 100 | 0.66
5 | CCCC[C@H](CO)Nc1nc(N)nc2cc(C(=O)OC)ccc12 [Compound 18, Methyl (R)-2-amino-4-((1-hydroxyhexan-2-yl)amino)quinazoline-7-carboxylate] | > 100 | 0.57
6 | CCCC[C@H](CO)Nc1nc(N)nc2cc(C(F)(F)F)ccc12 [Compound 24, (R)-2-((2-amino-7-(trifluoromethyl)quinazolin-4-yl)amino)hexan-1-ol] | 3.36 | 0.35
7 | CCCC[C@H](CO)Nc1nc(N)nc2cc(-c3nnco3)ccc12 [Compound 5, (R)-2-((2-amino-7-(1,3,4-oxadiazol-2-yl)quinazolin-4-yl)amino)hexan-1-ol] | > 25 | 0.38
8 | CCCC[C@H](CO)Nc1nc(N)nc2c(F)cccc12 [Compound 9, (R)-2-((2-amino-8-fluoroquinazolin-4-yl)amino)hexan-1-ol] | > 25 | 0.11
9 | CCCC[C@H](CO)Nc1nc(N)nc2cccc(OC)c12 [Compound 12, (R)-2-((2-amino-5-methoxyquinazolin-4-yl)amino)hexan-1-ol] | 11.3 | 0.39
10 | CCCC[C@H](CO)Nc1nc(N)nc2cc(F)cc(F)c12 [Compound 23, (R)-2-((2-amino-5,7-difluoroquinazolin-4-yl)amino)hexan-1-ol] | 6.24 | 0.04
11 | CCC[C@H](CO)Nc1nc(N)nc2c(C)cccc12 [Compound 6, (R)-2-((2-amino-8-methylquinazolin-4-yl)amino)pentan-1-ol] | > 25 | 5.75
12 | CCCC[C@H](CO)Nc1nc(N)nc2cc(C)ccc12 [Compound 14, (R)-2-((2-amino-7-methylquinazolin-4-yl)amino)hexan-1-ol] | 11.5 | 0.11
13 | CCCC[C@H](CO)Nc1nc(N)nc2cccc(Cl)c12 [Compound 15, (R)-2-((2-amino-5-chloroquinazolin-4-yl)amino)hexan-1-ol] | > 100 | 0.07
14 | CCCC[C@H](CO)Nc1nc(N)nc2cccc(C3CC3)c12 [Compound 1, (R)-2-((2-amino-5-cyclopropylquinazolin-4-yl)amino)hexan-1-ol] | > 100 | 0.35
15 | CCCC[C@H](CO)Nc1nc(N)nc2c(F)c(F)ccc12 [Compound 19, (R)-2-((2-amino-7,8-difluoroquinazolin-4-yl)amino)hexan-1-ol] | > 100 | 0.41
16 | CCCC[C@H](CO)Nc1nc(N)nc2c(Cl)cccc12 [Compound 8, (R)-2-((2-amino-8-chloroquinazolin-4-yl)amino)hexan-1-ol] | > 25 | 2.72
17 | CSCC[C@H](CO)Nc1nc(N)nc2cccc(F)c12 [Compound 20, (R)-2-((2-amino-5-fluoroquinazolin-4-yl)amino)-4-(methylthio)butan-1-ol] | > 50 | 0.7
18 | CCCC[C@H](CO)Nc1nc(N)nc2cc(C#N)ccc12 [Compound 4, (R)-2-amino-4-((1-hydroxyhexan-2-yl)amino)quinazoline-7-carbonitrile] | > 100 | 0.14
19 | CCCC[C@H](CO)Nc1nc(N)nc2c(C)cccc12 [Compound 7, (R)-2-((2-amino-8-methylquinazolin-4-yl)amino)hexan-1-ol] | > 25 | 0.46
20 | CCCC[C@H](CO)Nc1nc(N)nc2cc(F)ccc12 [Compound 13, (R)-2-((2-amino-7-fluoroquinazolin-4-yl)amino)hexan-1-ol] | 29.4 | 0.04
21 | CCCC[C@H](CO)Nc1nc(N)nc2c(C)ccc(F)c12 [Compound 26, (R)-2-((2-amino-5-fluoro-8-methylquinazolin-4-yl)amino)hexan-1-ol] | > 100 | 0.57
22 | CCCC[C@H](CO)Nc1nc(N)nc2cccc(F)c12 [Compound 2, (R)-2-((2-amino-5-fluoroquinazolin-4-yl)amino)hexan-1-ol] | 27.7 | 0.07
23 | CCCC[C@H](CO)Nc1nc(N)nc2c(OC)cccc12 [Compound 17, (R)-2-((2-amino-8-methoxyquinazolin-4-yl)amino)hexan-1-ol] | > 50 | 3.74
24 | CCCC[C@H](CO)Nc1nc(N)nc2cccc(C)c12 [Compound 16, (R)-2-((2-amino-5-methylquinazolin-4-yl)amino)hexan-1-ol] | > 100 | 0.19
25 | CCCC[C@H](CO)Nc1nc(N)nc2cccc(C(=O)NC)c12 [Compound 22, (R)-2-amino-4-((1-hydroxyhexan-2-yl)amino)-N-methylquinazoline-5-carboxamide] | 2.17 | 1.81
